Assay results taken from US5728829A, “Process of preparing benzodiazepine compounds useful as antagonists of CCK or of gastrine” (Ferring-Research Limited, priority 1993, dated 1998).
Like-named read-outs stand apart in the source and are kept apart here.

Key:
[1] = system: pentagastrin-stimulated gastric acid secretion; experiment: Measurement of inhibition of pentagastrin-stimulated gastric acid secretion in rat; format: in vivo; conditions: intravenous; for % Inhibition (maximum inhibition of gastric acid secretion): at 0.1 μmol/kg, mean for 3-5 animals; for ED50: read-out: ED50 (dose reducing secreted gastric acid to 50% of the maximum level), table 3, "Relative ED50 values", anaesthetised rat, pentagastrin 15 μg/Kg/hr
From the text: Measurement of inhibition of pentagastrin-stimulated gastric acid secreation in rat
A cannula was inserted into the trachea of a rat anaesthetised with urethane (intraperitoneally administered, 1.25 g/Kg), its abdominal wall was incised to expose the gastric and duodenal portions, and a polyethylene cannula was set in the anterior stomach after ligation of the cardia. The duodenum was then subjected to slight section, a polyethylene cannnula was inserted from the incised portion toward the stomach, and the pylorus was ligated to fix the cannula.
Physiological saline (with pH adjusted to 7.0) was perfused from the anterior stomach toward the pylorus at a rate of 3 ml/min, and the gastric-acid secreation was measured by continuous titration of the perfusate by the use of a pH-stat (AUT-201; product of Toa Electronics, Ltd.). The continuous titration was carried out by using 25 mM NaOH solution until the pH reached 7.0, and the result was expressed as the amount of gastric acid secreted for every 10 minutes (μEq /10 min.). Pentagastrin was intravenously administered at a rate of 15 μg/Kg/hr.
The secretion of gastric acid increased upon administration of pentagastrin, reaching the maximum level after 60 minutes and stably maintaining this level after that.

CCK-A receptor = target: T1, CCK-A receptor (Rattus norvegicus, UniProt P30551); experiment: Selectivity for the CCK-B receptor by comparison with binding to the CCK-A receptor in rats ([3H]L-364,718, pancreas membranes); design: species or system SD rat; conditions: table 2; for A/B Ratio: IC50 (CCK-A)/IC50 (CCK-B): higher value = better CCK-B selectivity; for IC50: rat pancreas membranes, [3H]L-364,718, 37 °C, 30 min, read-out: Receptor binding affinity IC50, CCK-A
T1 construct: The pancreas of an SD rat was homogenized; from tissue; host or cells: SD rat pancreas membranes
T1 sequence (P30551 1-444): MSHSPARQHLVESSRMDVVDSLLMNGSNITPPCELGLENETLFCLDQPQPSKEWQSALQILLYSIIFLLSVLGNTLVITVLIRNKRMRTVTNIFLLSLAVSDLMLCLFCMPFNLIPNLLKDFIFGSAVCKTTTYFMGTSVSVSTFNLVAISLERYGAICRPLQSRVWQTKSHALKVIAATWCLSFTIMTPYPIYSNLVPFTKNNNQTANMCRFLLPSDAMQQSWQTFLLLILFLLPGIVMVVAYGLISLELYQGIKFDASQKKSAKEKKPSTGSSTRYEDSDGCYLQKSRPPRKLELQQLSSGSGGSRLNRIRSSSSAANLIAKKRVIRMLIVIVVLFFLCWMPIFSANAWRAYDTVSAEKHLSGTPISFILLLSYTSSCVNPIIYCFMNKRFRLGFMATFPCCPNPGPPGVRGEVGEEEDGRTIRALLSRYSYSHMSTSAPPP
Procedure: Determination of selectivity for the CCK-B receptor by comparison with binding to the CCK-A receptor in rats
The pancreas of an SD rat was homogenized in a 20-fold volume of 50 mM Tris-HCl buffer (pH 7.7) by the use of a Polytrone-type homogenizer, the homogenate was twice centrifuged for 10 minutes at 50000 G by the use of an ultra-centrifuge, the precipitate thus obtained was suspended in a 40-fold volume of 50 mM Tris-HCl buffer (containing 0.2% BSA, 5 mM MgCl2, 0.1 mg/ml bacitracin and 5 mM DTF; pH 7.7), and the suspension was stored at -80° C. until the membrane preparations were required.
The membrane preparations were then warmed to room temperature, diluted 1:10 with the buffer and incubated at 37° C. for 30 minutes in the presence of [^3 H]L-364,718 and the test compound then separated by suction filtration. Non-specific binding was determined in the presence of 1 μM L-364,718.
A high affinity for the CCK-A receptor in a CCK-B/gastrin antagonist is thought to be undesirable as it may lead to side-effects such as cholestasis and gall stone formation during therapy. Therefore it is preferable for the therapeutic agent to be selective for the CCK-B receptor. This selectivity is expressed by the ratio IC50 (CCK-A)/IC50 (CCK-B); the higher the value of this ratio the better is the selectivity.

CCK-B receptor = target: T2, CCK-B receptor (Rattus norvegicus, UniProt P30553); experiment: Measurement of binding affinity for CCK-B receptors ([125I]BH-CCK-8, rat brain membranes); design: species or system SD rat
T2 construct: the whole brain was immediately excised from each of the rats and homogenized; from tissue; host or cells: SD rat whole brain membranes
T2 sequence (P30553 1-452): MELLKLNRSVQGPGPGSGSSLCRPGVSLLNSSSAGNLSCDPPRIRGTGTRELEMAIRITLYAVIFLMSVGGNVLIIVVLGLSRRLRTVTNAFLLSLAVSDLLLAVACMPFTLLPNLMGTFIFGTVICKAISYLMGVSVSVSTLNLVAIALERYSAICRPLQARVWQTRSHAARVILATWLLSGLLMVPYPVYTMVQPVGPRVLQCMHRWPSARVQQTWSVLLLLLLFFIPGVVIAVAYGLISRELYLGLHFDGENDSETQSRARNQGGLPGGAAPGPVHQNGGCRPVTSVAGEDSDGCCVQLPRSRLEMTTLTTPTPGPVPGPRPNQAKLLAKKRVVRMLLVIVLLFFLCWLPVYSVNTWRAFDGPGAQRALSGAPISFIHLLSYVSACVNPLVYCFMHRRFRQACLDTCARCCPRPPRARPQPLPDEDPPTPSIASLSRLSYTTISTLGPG
Procedure: About 100 SD rats were decapitated without anaesthesia, the whole brain was immediately excised from each of the rats and homogenized in 10-fold volume of 0.32M aqueous solution of sucrose by the use of a Teflon-coated homogenizer, the homogenate thus obtained was centrifuged for ten minutes at 900 G by the use of a cooled centrifuge, and the supernatant was further centrifuged for 15 minutes at 11500 G. The precipitate thus obtained was dispersed in 50 mM Tris-HCl buffer (pH 7.4) containing 0.08% Triton X-100, this suspension was allowed to stand for 30 minutes and again centrifuged for 15 minutes at 11500 G, the precipitate thus obtained was washed twice with 5 mM Tris-HCl buffer and twice with 50 mM Tris-HCl buffer in that order with centrifugal separation, the washed precipitate was suspended in 50 mM Tris-HCl buffer, and the suspension thus obtained was stored at -80° C. until the membrane preparation was required.
The membrane preparations were warmed to room temperature, diluted with 10 mM HEPES buffer (containing 130 mM NaCl, 5 mM MgCl2, 1 mM EGTA and 0.25 mg/ml bacitracin; pH 6.5) and incubated at 25° C. for 120 minutes in the presence of [^125 I]BH-CCK-8 and the test compound, then separated by suction filtration. Non-specific binding was determined in the presence of 1 μM CCK-8. The amount of labelled ligand bound to the receptor was measured by the use of a γ-counter, IC50 values were determined, being that concentration of test compound required to inhibit specific binding by 50%.

[2] = table 1, rat brain membranes, [125I]BH-CCK-8, 25 °C, 120 min, read-out: IC50 (CCK-B receptor binding)
[3] = table 2, rat brain membranes, [125I]BH-CCK-8, read-out: Receptor binding affinity IC50, CCK-B

| SMILES | % Inhibition (maximum inhibition of gastric acid secretion) [1] | A/B Ratio: IC50 (CCK-A)/IC50 (CCK-B) (CCK-A receptor) | IC50 (CCK-A receptor) | IC50 (CCK-B receptor) | IC50 (CCK-B receptor; [2]) | ED50 [1] | IC50 (CCK-B receptor; [3]) |
| --- | --- | --- | --- | --- | --- | --- | --- |
| Cc1cccc(NC(=O)NC2N=C(c3nccn3C)c3ccccc3N(CC(=O)C(C)(C)C)C2=O)c1 (racemic) [Example 1, N-((3RS)-1-tert-Butylcarbonylmethyl-2,3-dihydro-2-oxo-5-(2-(1-methyl)imidazolyl)-1H-1,4-benzodiazepin-3-yl)-N'-(3-methylphenyl)urea] | 48.9% | 187 |  |  |  |  |  |
| CN(C)c1cccc(NC(=O)NC2N=C(c3nccn3C)c3ccccc3N(CC(=O)C(C)(C)C)C2=O)c1 (racemic) [Example 2, N-((3RS)-1-tert-Butylcarbonylmethyl-2,3-dihydro-2-oxo-5-(2-(1-methyl)imidazolyl)-1H-1,4-benzodiazepin-3-yl)-N'-(3-dimethylaminophenyl)urea] | 47.4% | 238 | 495 nM | 2.08 nM |  |  |  |
| Cc1cccc(NC(=O)NC2N=C(c3nccs3)c3ccccc3N(CC(=O)C(C)(C)C)C2=O)c1 (racemic) [Example 3, N-((3RS)-1-tert-Butylcarbonylmethyl-2,3-dihydro-2-oxo-5-(2-thiazolyl)-1H-1,4-benzodiazepin-3-yl)-N'-(3-methylphenyl)urea] | 57.6% | 540 | 433 nM | 0.8 nM |  |  |  |
| CN(C)c1cccc(NC(=O)NC2N=C(c3nccs3)c3ccccc3N(CC(=O)C(C)(C)C)C2=O)c1 (racemic) [Example 4, N-((3RS)-1-tert-Butylcarbonylmethyl-2,3-dihydro-2-oxo-5-(2-thiazolyl)-1H-1,4-benzodiazepin-3-yl)-N'-(3-dimethylaminophenyl)urea] | 55.2% | 700 | 441 nM | 0.63 nM |  |  |  |
| Cc1cccc(NC(=O)NC2N=C(c3cnccn3)c3ccccc3N(CC(=O)C(C)(C)C)C2=O)c1 (racemic) [Example 5, N-((3RS)-1-tert-Butylcarbonylmethyl-2,3-dihydro-2-oxo-5-(2-pyrazinyl)-1H-1,4-benzodiazepin-3-yl)-N'-(3-methylphenyl)urea] | 55.4% |  |  |  |  |  |  |
| CN(C)c1cccc(NC(=O)NC2N=C(c3cnccn3)c3ccccc3N(CC(=O)C(C)(C)C)C2=O)c1 (racemic) [Example 6, N-((3RS)-1-tert-Butylcarbonylmethyl-2,3-dihydro-2-oxo-5-(2-pyrazinyl)-1H-1,4-benzodiazepin-3-yl)-N'-(3-dimethylaminophenyl)urea] | 61.9% |  |  | 0.22 nM |  |  |  |
| CN(C)c1cccc(NC(=O)NC2N=C(c3ncc[nH]3)c3ccccc3N(CC(=O)C(C)(C)C)C2=O)c1 (racemic) [Example 8B, N-((3RS)-1-tert-Butylcarbonylmethyl-2,3-dihydro-5-(2-imidazolyl)-2-oxo-1H-1,4-benzodiazepin-3-yl)-N'-(3-dimethylaminophenyl)urea] |  |  |  | 55.3 nM |  |  |  |
| CNc1cccc(NC(=O)NC2N=C(c3ccccn3)c3ccccc3N(CC(=O)C(C)(C)C)C2=O)c1 (racemic) [Example 26, N-((3RS)-1-tert-Butylcarbonylmethyl-2,3-dihydro-2-oxo-5-(2-pyridyl)-1H-1,4-benzodiazepin-3-yl)-N'-(3-(methylamino)phenyl)urea] |  |  |  |  | 1.4 nM |  |  |
| CN(C)c1cccc(NC(=O)N[C@@H]2N=C(c3ccccn3)c3ccccc3N(CC(=O)C(C)(C)C)C2=O)c1 [Example 22, N-((3R)-1-tert-Butylcarbonylmethyl-2,3-dihydro-2-oxo-5-(2-pyridyl)-1H-1,4-benzodiazepin-3-yl)-N'-((3-dimethylamino)phenyl)urea] |  | 565 | 113 nM |  | 0.2 nM | 0.011 µmol/kg | 0.2 nM |
| Cc1cccc(NC(=O)N[C@@H]2N=C(c3ccccn3)c3ccccc3N(CC(=O)C(C)(C)C)C2=O)c1 [Example 42] |  |  |  |  | 0.44 nM | 0.016 µmol/kg |  |
| CN(C(=O)OC(C)(C)C)c1cccc(C(=O)O)c1 [Example 50, 3-(N-tert-Butoxylcarbonyl-N-methylamino)benzoic acid] |  |  |  |  | 0.88 nM |  |  |
| CNc1cccc(NC(=O)N[C@@H]2N=C(c3ccccn3)c3ccccc3N(CC(=O)C(C)(C)C)C2=O)c1 [Example 52, N(-((3R)-1-tert-Butylcarbonylmethyl-2,3-dihydro-2-oxo-5-(2-pyridyl)-1H-1,4-benzodiazepin-3-yl)-N'-3-methylaminophenyl)urea] |  | 5020 | 502 nM |  |  |  | 0.1 nM |
